Results on one molecule are retold here after patent US20230382871A1, “CSF1R KINASE INHIBITOR AND USE THEREOF” (SHANGHAI INSTITUTE OF MATERIA MEDICA, CHINESE ACADEMY OF …, priority 2020, published 2023).

The test system of data set [1] is human colorectal cancer HT-29 subcutaneous xenografts. Nature of the data set: Human colorectal cancer HT-29 subcutaneous xenografts in nude mice. The data set is classed as in vivo, BALB/c nude mice. Particulars: for Body Weight (g) D 21 / RTV (mean ± SD) / TV (mm3, mean ± SD) D 21: D 21; for T/C (%): Day 21. From the text:
BALB/c female nude mice of 6 weeks old were used, and were provided by Shanghai Lingchang Biotechnology Co., Ltd.
Human colorectal cancer HT-29 cells were subcutaneously inoculated into the right axillary fossa of a nude mouse (5×10^6 cells/mouse). After a xenograft was formed, the tumor was transferred to a nude mouse for 1 passage.
Tumor tissues at the vigorous growth stage were removed and cut into pieces of approximately 1.5 mm^3. The tumor fragments were inoculated subcutaneously into the right axillary fossa of nude mice under aseptic conditions. The diameters of the subcutaneous xenografts in nude mice were measured with a vernier caliper. The animals were randomly grouped after the xenografts reached an average volume of about 120 mm^3. Compound I was administered orally at doses of 20 mg/kg, 10 mg/kg and 5 mg/kg twice a day for 21 consecutive days. An equal volume of a blank preparation was administered orally twice a day for 21 consecutive days. The positive control drug Axitinib was administered orally at a dose of 40 mg/kg group twice a day for 21 consecutive days. An equal volume of water for injection was administered to the animals in the solvent group. Throughout the experiment, the diameters of the xenografts were measured twice a week and the mice were weighed at the same time. The tumor volume (TV) was calculated as TV=½×a×b^2, where “a” and “b” denote the length and width of a tumor, respectively. The relative tumor volume (RTV) was calculated from the measurement results with the calculation formula RTV=Vt/V0, in which V0 is the tumor volume measured upon administration after grouping (i.e., D0) and Vt is the tumor volume from each measurement. The evaluation index of anti-tumor activity is the relative tumor proliferation rate T/C (%), which is calculated as T/C (%)=(TRTV/CRTV)×100%, in which TRTV denotes the RTV from the treatment group and CRTV denotes the RTV from solvent group.

In data set [2] the test system is M2-type macrophage marker CD206 in U87MG tumor tissues. Description: Immunohistochemistry of M2-type macrophage marker CD206 in U87MG tumor tissues. The data set is classed as in vivo, nude mice. The procedure:
At the end of the in vivo experiments, U87MG and HT-29 xenografts in nude mice were removed and fixed with […] to prepare paraffin sections.
Expression of individual proteins was assessed using multiplicative quick score method (MQS). This evaluation method takes into account both the staining intensity and the staining range. The method estimates the proportion of positive cells and gives a range score from 1 to 6 (1=1%-4%; 2=5%-19%; 3=20%-39%; 4=40%-59%; 5=60%-79%; 6=80%-100%). The average intensity score of positive stained cells was 0 to 3 (0=no staining; 1=weak staining; 2=moderate staining; 3=strong staining). The total score a (minimum 0 and maximum 18) is then calculated by multiplying the range score by the intensity score.
For detecting the changes in the macrophage marker F4/80 and M2-type macrophage marker CD206 in the U87MG tumor tissues, quantitative analysis (solvent: n=6, blank preparation: n=6, Compound I (10 mg/kg): n=6, Compound I (20 mg/kg): n=6, Compound I (40 mg/kg): n=6, Axitinib: n=4) was performed on all sections and the experimental data were analyzed for significant differences using the t-test. * denotes p<0.05 as compared with the blank preparation group, ** denotes p<0.01 as compared with the blank preparation group, and denotes p<0.001 as compared with the blank preparation group.

Turning to `Cc1cc(NC(=O)c2cccc3cc(-c4cccc5[nH]nc(N)c45)ccc23)ccc1F` [Compound I], in data set [1] (5 mg/kg bid × 21 po), the “Body Weight (g) D 0” value turned out to be 19.7 g; the “TV (mm3, mean ± SD) D 0” value came to 113 ± 28 mm3; the “Body Weight (g) D 21” value is on record as 18.6 g; the “RTV (mean ± SD)” value turned out to be 3.76 ± 0.87. Moreover, in data set [1] (5 mg/kg bid × 21 po), the “TV (mm3, mean ± SD) D 21” value is 427 ± 157 mm3 and the “T/C (%)” value stood at 42.70%. Also, in data set [1] (10 mg/kg bid × 21 po), the “Body Weight (g) D 0” value was determined as 19.8 g; the “TV (mm3, mean ± SD) D 0” value is 120 ± 33 mm3; the “Body Weight (g) D 21” value amounted to 18.1 g; the “RTV (mean ± SD)” value is 2.75 ± 1.04. In addition, in data set [1] (10 mg/kg bid × 21 po), the “TV (mm3, mean ± SD) D 21” value was 336 ± 173 mm3 and the “T/C (%)” value was found to be 31.27%. For the same molecule, in data set [1] (20 mg/kg bid × 21 po), the “Body Weight (g) D 0” value worked out at 20.1 g; the “TV (mm3, mean ± SD) D 0” value turned out to be 121 ± 35 mm3; the “Body Weight (g) D 21” value is 18.2 g; the “RTV (mean ± SD)” value turned out to be 1.53 ± 0.25. Besides, in data set [1] (20 mg/kg bid × 21 po), the “TV (mm3, mean ± SD) D 21” value is 188 ± 69 mm3 and the “T/C (%)” value is listed as 17.38%. The “inhibition rate of CD206 expression, U87MG tumor tissue” value in data set [2] (10 mg/kg dose group) came out at 34.48%. Besides, in data set [2] (40 mg/kg dose group), the “inhibition rate of CD206 expression, U87MG tumor tissue” value stood at 70.69%.
